A short description of data set [1]: Plasma pharmacokinetics after oral gavage in male Sprague-Dawley rats. Type of data set: in vivo. Also on record: AUC(0-t): concentration or dose not given beside the values. The following applies: rat. The procedure:
A pharmacokinetic (PK) analysis was performed on plasma concentrations of various combinations of amino acid compounds administered by oral gavage to male Sprague-Dawley rats. Four animals were dosed with RCitNacQCarLHKVS, a test article comprising ten amino acid components: arginine, citrulline, N-acetylcysteine, glutamine, carnitine, leucine, histidine, lysine, valine, and serine (Table 19). Animals were fasted for 2 hours prior to dose administration. Plasma samples were taken immediately pre-dose and 0.5, 1, 2, 3, 4, and 5 hours post-dose.
Bioanalysis of collected plasma samples for amino acid content was performed at Axcella Health using an LC-MS method (Section 2.1). Bioanalytical data were analyzed using noncompartmental analysis with Phoenix® WinNonLin® (v8.1).
An LC/MS method utilizing HILIC chromatography and high-resolution mass spectrometry was used to quantify amino acids in rat plasma. The samples were prepared by protein precipitation and spiked with stable-labeled amino acid internal standard for each analyte. […] QCs, spiked into rat plasma, were utilized to assess the accuracy of the method.
PK parameters of test article components were determined from individual rat plasma concentration-time data by employing a noncompartmental approach using Phoenix WinNonlin® (Version 8.1) software. Nominal times were used to calculate the toxicokinetic parameters. […] This program analyzed data using the standard methods described by Gibaldi and Perrier (see M. Gibaldi and D. Perrier, Pharmacokinetics, 2nd edition, New York: Marcel-Dekker, Inc.; 1982.).

The next data set concerns TNFa. Nature of the data set: LPS-induced TNFa secretion in primary human PBMC-derived macrophages (ELISA). Type of data set: cell-based. The following applies: Donor 2; in words. Here is the method:
(§1) Unpurified buffy coats (Research Blood Components) were carefully poured into 50 mL centrifuge tubes and diluted with room temperature Dulbecco's Phosphate Buffered Saline (dPBS) with Calcium and Magnesium (Gibco). Diluted buffy coats were further divided into four total 50 mL centrifuge tubes at 20 mL per tube. Lymphocyte Separation Medium (Corning) was carefully pipetted to the bottom of each centrifuge tube. Mixtures were centrifuged at 850× g for 32 minutes at 20° C. with 0 deceleration and acceleration.
(§2) The PBMC layer was separated from other components after centrifugation and added to new 50 mL centrifuge tube containing 25 mL dPBS. Total volume was brought up to 50 mL with dPBS and centrifuged at 600× g for 10 minutes at 20° C. with acceleration of 9, deceleration of 5. Supernatant was carefully removed from cell pellets. The cell pellets were resuspended using 10 mL dPBS. Total volume was then brought up to 50 mL using dPBS and centrifuged at 450× g for 5 min at 20° C. with acceleration of 9, deceleration of 9. The supernatant removal and cell pellet resuspension was repeated again.
(§3) The supernatant was then carefully removed from cell pellets. Cell pellets were resuspended in 10 mL dPBS without calcium or magnesium and filtered through a 70 uM cell strainer. The total PBMC number was determined using a Cellometer K2 automated cell counter. A total of 5E6 cells were saved for flow cytometric analysis. Remaining cells were centrifuged at 490× g for 5 minutes at 20° C. with acceleration of 9, deceleration of 9.
(§4) CD14+ cells were selected using EasySep™ Human CD14 Positive Selection Kit II ([…] Technologies). Cells were resuspended in cold EasySep™ Buffer ([…] Technologies) at 1×10^8 cells/mL. A total of 100 uL/mL EasySep™ Human CD14 Positive Selection Cocktail II was added to the cell suspension, mixed, and incubated at room temperature for 10 minutes. A total of 100 uL/mL RapidSpheres were added to the mixture and incubated at room temperature for 3 minutes after mixing, then RoboSep buffer was added to bring up the total volume to 10 mL. The mixture in a 15 mL tube was placed in magnet and incubated at room temperature for 3 minutes. Supernatant was discarded and 10 mL fresh EasySep™ buffer was added to 15 mL tube. The addition of RoboSep buffer, mixing, and discarding of supernatant was repeated two more times.
(§5) Negative and positive fractions were centrifuged at 490× g for 5 minutes at 20° C. with acceleration of 9, deceleration of 9, and resuspended in DMEM (Gibco) and 10% Heat Inactivated Fetal Bovine Serum (Atlanta Bio) and Penicillin/Streptomycin. Cells were counted and centrifuged again at […] for 5 minutes at 20° C. with acceleration of 9, deceleration of 9. After centrifugation, cell were resuspended in DMEM (Gibco) and 10% Heat Inactivated Fetal Bovine Serum (Atlanta Bio) and Penicillin/Streptomycin containing 500 U/mL […] and plated at 1-2×10^6 cells/mL on 10 cm tissue culture plates. Cells were kept in 37° C., 5% CO2 in between feedings/harvest.
(§6) Cells were fed every 3-4 days by removing media and unattached cells, centrifuging at 490× g for 5 minutes at 20 C with acceleration of 9, deceleration of 9, and resuspending in fresh DMEM (Gibco) and 10% Heat Inactivated Fetal Bovine Serum (Atlanta Bio) and Penicillin/Streptomycin containing GM-CSF. Resuspended cells were seeded back onto 10 cm tissue culture plates and incubated at 37° C., 5% CO2. Differentiated macrophages were used for subsequent experiments.
(§7) Primary human PMBC derived macrophages were seeded on day 0 at 3.0E4 cells per well in 96-well microplates (ThermoFisher) in Dulbecco's Modified Eagle Medium (DMEM) (Gibco) supplemented with penicillin-streptomycin (Hyclone) and 10% heat inactivated fetal bovine serum (HI-FBS) (Atlanta Bio) and incubated overnight at 37° C., 5% CO2. On day 1, cells were washed once with 150 uL per well DPBS (Gibco) and treated with 75 uL of: • a. […]

The next data set relates to IL-6. As to the kind of experiment: LPS-induced IL-6 secretion in primary human PBMC-derived macrophages (ELISA). It counts as cell-based. The following applies: Donor 2; in words. Here is the method: as §1, §2, §3, §4, §5, §6, §7
Another data set has as its system VCAM-1. Nature of the data set: VCAM-1 cell integrated intensity in HLMVEC treated with TNFa. Type of data set: cell-based, human. Conditions: 0.5 ng/mL TNFα; amino acids at 20×; 24 hours; in words. From the text:
A VEC model was employed to assess the ability of amino acids to influence aspects of vascular dysfunction in SCD. TNFa treatment of healthy donor HLMVEC mimics the SCD disease state and induces expression of adhesion markers ICAM-1 and VCAM-1, and secretion of proinflammatory cytokine IL-6. It is established that levels of ICAM-1, VCAM-1, and IL-6 can contribute to SCD pathology and correlate with the incidence and severity of complications in SCD patients. The VEC model sought to test the ability of amino acids to reduce the TNFa-induced disease phenotype by lowering expression of adhesion markers (ICAM-1 and VCAM-1) and inflammatory cytokines (IL-6) while promoting VEC health and viability.
Primary Human Lung Microvascular Endothelial Cells (HLMVEC; Lonza) were seeded at 6,000 cells per well in Endothelial Cell Growth Basal Medium-2 (Lonza) supplemented with Fetal Bovine Serum (FBS; Lonza), human EGF (Lonza), human VEGF (Lonza), R3-Insulin-like Growth Factor-1 (Lonza), ascorbic acid (Lonza), hydrocortisone (Lonza), human FGF-beta (Lonza), and gentamicin/amphotericin-b (Lonza) in a 96-well plate (Thermo Fisher). The cells were incubated for 45 minutes at room temperature, then incubated overnight at 37° C./5% CO2.
Following overnight incubation, cell were washed once with 150 μL of Dulbecco's phosphate buffered saline (DPBS; Gibco), and then treated with Endothelial Basal Medium MCB-131 (amino acid, glucose, sodium pyruvate, and phenol red free; US Biologicals) containing a defined custom amino acid concentration based on physiological concentrations in blood of patients with SCD (thus recapitulating observed metabolic imbalances such as the depletion of certain essential amino acids including arginine and aspartate and enrichment of certain non-essential amino acids including glutamate and asparagine), dialyzed FBS (Hyclone), human EGF (Lonza), human VEGF (Lonza), R3-Insulin-like Growth Factor-1 (Lonza), ascorbic acid (Lonza), hydrocortisone (Lonza), human FGF-beta (Lonza), and gentamicin/amphotericin-b (Lonza), glucose, 10 mM HEPES, sodium pyruvate, and sodium bicarbonate supplemented with one of the following: • a. PBS (vehicle control), • b. 0.5 ng/mL Tumor Necrosis Factor alpha (TNFα) and PBS, or; • c. 0.5 ng/mL TNFα and amino acid treatments at 20× mean physiological concentrations in plasma based on values published in the Human Metabolome Database (HMDB) in PBS.
After 24 hours of treatment, cells were washed once with 150 μL of DPBS (Gibco), then fixed with 4% paraformaldehyde. […]
Antibody binding was detected by fluorescence microscopy using a high content imager (Molecular Devices). Images were analyzed using MetaXpress 6 software to determine the integrated intensity per cell for each wavelength corresponding to ICAM-1 or VCAM-1.

Data set [2] relates to RBCs of healthy whole blood. As to the kind of experiment: RBC deformability (LORRCA elongation index), ex vivo TBHP oxidation of healthy whole blood. Type of data set: cell-based, human. The following applies: healthy donor 2, single amino acid treatments, in words. The text has this: Whole blood from healthy African American and/or Hispanic donors was obtained from Research Blood Components, LLC based on the following donor selection criteria: Adult age (between 18 and 50 years), normal BMI (<30), and absence of other confounding clinical conditions. Whole blood from SCD donors were obtained from BioIVT based on the following donor selection criteria: Patients with genotypes HbSS, HbSC, HbS/β^0 and at least 1-2 months gap since last blood transfusion. Whole blood was shipped on ice on the same day as blood draw. Upon receipt, the blood sample was aliquoted and stored in the refrigerator until used for studies.
RBC deformability measurements were conducted with the Laser Optical Rotational Red Cell Analyzer (LORRCA) from RR Mechatronics in a temperature-controlled environment (37° C.). Briefly, an even layer of RBCs suspended in polyvinylpyrrolidone (PVP) is subjected to shear stress gradient (0.3 to 30 Pa) through two concentric cylinders and the resulting changes in RBC shape or deformability are measured by a laser beam diffraction pattern. The captured images of RBC shape in response to increasing shear stress are then analyzed by the LORRCA program to calculate Elongation Index (EI).
Healthy RBCs have higher deformability≥0.5 EI and SCD RBCs have lower deformability or EI values as studied by LORRCA ektacytometry in the field. […] The induced hemolysis model in this disclosure involves use of tert-butyl hydroperoxide (TBHP) to lower EI of RBCs.
The ex vivo hemolysis study disclosed here involves overnight treatment of whole blood with vehicle as a control and specific amino acids followed by rapid oxidation (5 min) with TBHP. Method for oxidation of whole blood with tert-butyl hydroperoxide has been used in prior literature (Diederich L, et al, Front Physiol. 2018 May 11; 9:332). RBC deformability or shape changes are then measured with LORRCA ektacytometry.
Whole blood aliquots stored in the fridge were brought up to room temperature while gently shaking on a rocker at low speed for an hour to ensure gradual and uniform suspension of red blood cells prior to deformability measurements. Vehicle control used in the study was 1× Dulbecco's […]) and amino acids disclosed herein were added (at either final […] or 2.5 mM concentration as indicated) to corresponding vehicle and amino acid treatment conditions. The samples were then incubated overnight at 37° C. Next day, 25 μL of whole blood was taken from each treatment condition and added to 5 mL Elon ISO viscous solution from RR Mechatronics. The sample was inverted 15-20 times to ensure proper mixing of the treated RBCs with the Elon ISO solution followed by loading the sample on LORRCA and capturing RBC deformability or shape measurements over the applied shear gradient. The remaining whole blood treatments were returned to incubator (37° C.) until deformability measurements were completed for all treatments. To the remaining whole blood treatment samples, TBHP solution (5.0-6.0 M in Decane, Sigma) was added at 2.5 mM final concentration from a 100 mM freshly prepared stock and incubated for further 5 min at 37° C. 25 μL of this TBHP-treated sample was immediately removed at the end of the 5 min incubation and added to the Elon ISO solution for RBC deformability measurement after oxidation. Included in the Tables 13-15 are EI measurements at ½ EImax shear stress 1.69 Pa and EImax shear stress 30 Pa from these studies and FIG. 1 captures EI measurements for all shear stress points for the indicated treatment conditions.

Where [3] appears, read: plasma, Mean, oral gavage of RCitNacQCarLHKVS, male Sprague-Dawley rats, read-out: AUC0-5 h.
Where [4] appears, read: plasma, Mean, oral gavage of RCitNacQCarLHKVS, male Sprague-Dawley rats, read-out: Cmax.
Where [5] appears, read: plasma, Mean, oral gavage of RCitNacQCarLHKVS, male Sprague-Dawley rats, read-out: Tmax.
[6] abbreviates: male, Sprague-Dawley, in vivo, po.

Consider ten compounds from patent US11058654B2, “Compositions and methods for the treatment of hemoglobinopathies and thalassemias” (AXCELLA HEALTH INC., priority 2018, dated 2021).

Like-named read-outs stand apart in the source and are kept apart here.

Turning to `NCCCC[C@H](N)C(=O)O` [Lysine], in data set [1] (setting [3]), the AUC(0-t) was 1350 µM·h. The Cmax in data set [1] (setting [4]) was determined as 337 µM. Besides, the Tmax in data set [1] (setting [5]) is 1 h.
The like results for `CC(C)[C@H](N)C(=O)O` [Valine] were, in that order, 463 µM·h, 126 µM and 1 h.
Turning to `C[N+](C)(C)CC(O)CC(=O)[O-]` (stereo not shown) [Carnitine], in data set [1] (setting [3]), the AUC(0-t) was determined as 237 µM·h. The Cmax in data set [1] (setting [4]) was 83.8 µM. For the same compound, the Tmax in data set [1] (setting [5]) came out at 5 h.
For `CC[C@H](C)[C@H](N)C(=O)O` [Isoleucine], the “effect on LPS-induced TNFa secretion” value with TNFa is “increased”.
With `CC(C)C[C@H](N)C(=O)O` [Leucine], the “effect on LPS-induced TNFa secretion” value with TNFa is “increased”. Moreover, the AUC(0-t) in data set [1] (setting [3]) was determined as 586 µM·h. The Cmax in data set [1] (setting [4]) turned out to be 170 µM. The Tmax in data set [1] (setting [5]) came to 0.5 h. For the same compound, the “effect on LPS-induced IL-6 secretion” value in the data set with IL-6 is “increased”.
Regarding `NC(=O)NCCC[C@H](N)C(=O)O` [Cit, citrulline], the “VCAM-1 expression in HLMVEC” value in the data set with VCAM-1 is recorded as “moderate effect”. For the same compound, the “EI over vehicle control, ½ EImax and EImax” value in data set [2] is “higher than the vehicle”.
`C[N+](C)(C)CC(O)CC(=O)[O-]` (stereo not shown) [Car, carnitine]: the “VCAM-1 expression in HLMVEC” value in the data set on VCAM-1 is recorded as “moderate effect”. The “EI over vehicle control, ½ EImax and EImax” value in data set [2] is “higher than the vehicle”.
In the case of `N[C@@H](Cc1c[nH]cn1)C(=O)O` [Histidine], in data set [1] (setting [6]), the AUC(0-t) was determined as 157 µM·h, the Cmax was 41.9 µM and the time of peak concentration (Tmax) came out at 1.25 h.
For `NC(=O)NCCC[C@H](N)C(=O)O` [Citrulline], in data set [1] (setting [3]), the AUC(0-t) came to 2090 µM·h. In data set [1] (setting [4]), the Cmax is 583 µM. For the same compound, the time to peak (Tmax) in data set [1] (setting [5]) was 2.5 h.
With `N[C@@H](CO)C(=O)O` [Serine], the AUC(0-t) in data set [1] (setting [3]) worked out at 1030 µM·h. Further, the Cmax in data set [1] (setting [4]) was 285 µM. Also, the Tmax in data set [1] (setting [5]) was found to be 2.25 h.
